Laboratory results published in patent US20140011682A1, “USE OF OPEN-CHAIN CARBOXYLIC ACIDS, CARBONIC ESTERS, CARBOXAMIDES AND CARBONITRILES OF ARYL, HETEROARYL AND BENZYLSULFONAMIDE OR THE SALTS THEREOF FOR IMPROVING THE STRESS TOLERANCE IN PLANTS” (BAYER INTELLECTUAL PROPERTY GMBH, priority 2010, published 2014).

Columns and labels:
Type in all cases: in vivo
Conditions in all cases: mean of three results
[1] = system: ZEAMX=Zea mays; assay: Drought stress test on crop plants in the greenhouse, spray application, Zea mays
Method: (§1) Seeds of monocotyledonous and dicotyledonous crop plants were placed in sandy loam in wood-fiber pots, covered with soil and cultivated in a greenhouse under good growth conditions. The test plants were treated at the early leaf stage (BBCH10 BBCH13). To ensure uniform water supply before commencement of stress, the potted plants were supplied with the maximum amount of water immediately beforehand by dam irrigation and, after application, transferred in plastic inserts in order to prevent subsequent, excessively rapid drying. The inventive compounds, formulated in the form of wettable powders (WP), wettable granules (WG), suspension concentrates (SC) or emulsion concentrates (EC), were sprayed onto the green parts of the plants as an aqueous suspension at an equivalent water application rate of 600 l/ha with addition of 0.2% wetting agent (agrotin). Substance application is followed immediately by stress treatment of the plants (cold or drought stress). For cold stress treatment, the plants were kept under the following controlled conditions:
(§2) Drought stress was induced by gradual drying out under the following conditions:
(§3) “day”: 14 hours with illumination at 26° C.
(§4) “night”: 10 hours without illumination at 18° C.
(§5) The duration of the respective stress phases was guided mainly by the state of the untreated, stressed control plants and thus varied from crop to crop. It was ended (by re-irrigating or transferring it to a greenhouse with good growth conditions) as soon as irreversible damage was observed on the untreated, stressed control plants. In the case of dicotyledonous crops, for example oilseed rape and soybeans, the duration of the drought stress phase varied between 3 and 5 days, in the case of monocotyledonous crops, for example wheat, barley or corn, between 6 and 10 days. The duration of the cold stress phase varied between 12 and 14 days. The end of the stress phase was followed by an approx. 5-7-day recovery phase, during which the plants were once again kept under good growth conditions in a greenhouse. In order to rule out any influence of the effects observed by any fungicidal action of the test compounds, it is additionally ensured that the tests proceed without fungal infection and without infection pressure.
(§6) After the recovery phase had ended, the intensities of damage were rated in visual comparison to untreated, unstressed controls of the same age (in the case of drought stress) or the same growth stage (in the case of cold stress). The intensity of damage was first assessed as a percentage (100%=plants have died, 0%=like control plants). These values were then used to calculate the efficacy of the test compounds (=percentage reduction in the intensity of damage as a result of substance application) by the following formula: […]
(§7) DVus: damage value of the untreated, stressed control
(§8) DVts: damage value of the plants treated with test compound
(§9) The tables below list mean values in each case from three results of the same test.

[2] = system: BRSNS=Brassica napus; assay: Drought stress test on crop plants in the greenhouse, spray application, Brassica napus
Method: as §1, §2, §3, §4, §5, §6, §7, §8, §9

[3] = system: TRZAS=Triticum aestivum; assay: Drought stress test on crop plants in the greenhouse, spray application, Triticum aestivum
Method: as §1, §2, §3, §4, §5, §6, §7, §8, §9

| SMILES | EF (BRSNS): Efficacy = percentage reduction in the intensity of damage ([2]; dosage 250 g/ha) [%] | EF (TRZAS) Efficacy ([3]; dosage 250 g/ha) [%] | EF (TRZAS) Efficacy ([3]; dosage 25 g/ha) [%] | also measured |
| --- | --- | --- | --- | --- |
| CC(C)CC(C)(C#N)NS(=O)(=O)c1ccc(Br)cc1 (centres unmarked) [I.1-14] |  |  |  | EF (ZEAMX): Efficacy = percentage reduction in the intensity of damage ([1]; dosage 250 g/ha): >5%; EF (BRSNS): Efficacy = percentage reduction in the intensity of damage ([2]; dosage 25 g/ha): >5% |
| CCOC(=O)CC(NS(=O)(=O)c1ccc(Br)cc1)C(C)C (centres unmarked) [I.1-28] |  |  |  | EF (BRSNS): Efficacy = percentage reduction in the intensity of damage ([2]; dosage 2.5 g/ha): >5% |
| COC(=O)CC(NS(=O)(=O)c1ccc(Br)cc1)C(C)C (centres unmarked) [I.1-29, Methyl 3-{[(4-bromophenyl)sulfonyl]amino}-4-methylpentanoate] | >5 |  |  | EF (ZEAMX): Efficacy = percentage reduction in the intensity of damage ([1]; dosage 250 g/ha): >5% |
| CCOC(=O)CC(NS(=O)(=O)c1ccc(Br)cc1)c1ccccc1Cl (centres unmarked) [I.1-33] |  | >5 |  | EF (BRSNS): Efficacy = percentage reduction in the intensity of damage ([2]; dosage 25 g/ha): >5% |
| COC(=O)CC(NS(=O)(=O)c1ccc(Br)cc1)c1ccc(Br)cc1 (centres unmarked) [I.1-35] |  |  | >5 | EF (BRSNS): Efficacy = percentage reduction in the intensity of damage ([2]; dosage 2.5 g/ha): >5% |
| COC(=O)CC(NS(=O)(=O)c1ccc(Br)cc1)C(=O)OC (centres unmarked) [I.1-63] | >5 |  | >5 |  |
| COC(=O)C(CC(C)C)NS(=O)(=O)c1ccc(Br)cc1 (centres unmarked) [I.1-77] | >5 |  |  |  |
| CCOC(=O)CC(NS(=O)(=O)c1ccc(Br)cc1)C(F)(F)F (centres unmarked) [I.1-103] | >5 |  | >5 |  |
| CCOC(=O)CC(CC(C)C)NS(=O)(=O)c1cccc2ccccc12 (centres unmarked) [I.2-62] |  | >5 |  | EF (ZEAMX): Efficacy = percentage reduction in the intensity of damage ([1]; dosage 25 g/ha): >5% |
| COC(=O)C(Cc1cn(C)cn1)NS(=O)(=O)c1cccc2ccccc12 (centres unmarked) [I.2-74] | >5 |  | >5 |  |
| COC(=O)C(NS(=O)(=O)c1cccc2ccccc12)C(C)C (centres unmarked) [I.2-75] |  |  | >5 | EF (ZEAMX): Efficacy = percentage reduction in the intensity of damage ([1]; dosage 250 g/ha): >5%; EF (BRSNS): Efficacy = percentage reduction in the intensity of damage ([2]; dosage 25 g/ha): >5% |
| COC(=O)C(CC(C)C)NS(=O)(=O)c1cccc2ccccc12 (centres unmarked) [I.2-77] |  | >5 |  | EF (BRSNS): Efficacy = percentage reduction in the intensity of damage ([2]; dosage 2.5 g/ha): >5% |
| C#CCC(NS(=O)(=O)c1cccc2ccccc12)C(=O)OC (centres unmarked) [I.2-86] | >5 | >5 |  |  |
| CCOC(=O)CC(NS(=O)(=O)c1ccc(Br)c2ccccc12)C(C)C (centres unmarked) [I.3-28] | >5 | >5 |  |  |
| CC(C)(C)OC(=O)CCCNS(=O)(=O)c1ccc(Br)c2ccccc12 [I.3-70] |  |  |  | EF (BRSNS): Efficacy = percentage reduction in the intensity of damage ([2]; dosage 2.5 g/ha): >5% |
| COC(=O)C(NS(=O)(=O)c1ccc(Br)c2ccccc12)C(C)C (centres unmarked) [I.3-75] | >5 |  | >5 |  |
| COC(=O)C(Cc1ccc(F)cc1)NS(=O)(=O)c1ccc(Br)c2ccccc12 (centres unmarked) [I.3-90] |  |  | >5 | EF (BRSNS): Efficacy = percentage reduction in the intensity of damage ([2]; dosage 25 g/ha): >5% |
| CCOC(=O)CC(NS(=O)(=O)c1ccc(Br)c2ccccc12)C(F)(F)F (centres unmarked) [I.3-103] |  |  | >5 | EF (BRSNS): Efficacy = percentage reduction in the intensity of damage ([2]; dosage 25 g/ha): >5% |
| COC(=O)C(Cc1c[nH]cn1)NS(=O)(=O)c1ccc(Br)c2ccccc12 (centres unmarked) [I.3-106] |  | >5 |  | EF (BRSNS): Efficacy = percentage reduction in the intensity of damage ([2]; dosage 25 g/ha): >5% |
| CCOC(=O)CC(NS(=O)(=O)c1ccc(OC)cc1)C(C)C (centres unmarked) [I.37-28] | >5 | >5 |  |  |
| CCCC(NS(=O)(=O)c1ccc(OC)cc1)C(=O)OC (centres unmarked) [I.37-73] |  | >5 |  | EF (BRSNS): Efficacy = percentage reduction in the intensity of damage ([2]; dosage 25 g/ha): >5% |
| COC(=O)C(NS(=O)(=O)c1ccc(OC)cc1)C(C)C (centres unmarked) [I.37-75] | >5 |  |  |  |
| COC(=O)C(Cc1cccnc1)NS(=O)(=O)c1ccc(OC)cc1 (centres unmarked) [I.37-82] | >5 |  | >5 |  |
| C#CCC(NS(=O)(=O)c1ccc(OC)cc1)C(=O)OC (centres unmarked) [I.37-86] |  | >5 |  | EF (ZEAMX): Efficacy = percentage reduction in the intensity of damage ([1]; dosage 250 g/ha): >5% |
| COC(=O)C(Cc1ccc(F)cc1)NS(=O)(=O)c1ccc(OC)cc1 (centres unmarked) [I.37-90] | >5 |  |  | EF (ZEAMX): Efficacy = percentage reduction in the intensity of damage ([1]; dosage 25 g/ha): >5% |
| COC(=O)C(COC(C)(C)C)NS(=O)(=O)c1ccc(OC)cc1 (centres unmarked) [I.37-91] | >5 |  |  | EF (ZEAMX): Efficacy = percentage reduction in the intensity of damage ([1]; dosage 25 g/ha): >5% |
| CCOC(=O)CC(NS(=O)(=O)c1c(C)cccc1C)C(C)C (centres unmarked) [I.52-28] |  |  |  | EF (BRSNS): Efficacy = percentage reduction in the intensity of damage ([2]; dosage 25 g/ha): >5% |
